From ChEMBL document CHEMBL1201862, “PubChem BioAssay data set” (2004)
Calls of active or inactive are those of the source.

Key:
HEK293 = assay: cells; assay type: functional, cell-based; conditions: Homo sapiens
[1] = biological target: T1, Nuclear receptor subfamily 0 group B member 1 (Homo sapiens, UniProt P51843); assay: Luminescence-based cell-based high throughput dose response assay for inhibitors of the orphan nuclear receptor subfamily 0, group B, member 1 (DAX1; NR0B1). [Related pubchem assays (depositor defined):AID504766, AID504790]; assay type: functional
T1 sequence (P51843 whole entry): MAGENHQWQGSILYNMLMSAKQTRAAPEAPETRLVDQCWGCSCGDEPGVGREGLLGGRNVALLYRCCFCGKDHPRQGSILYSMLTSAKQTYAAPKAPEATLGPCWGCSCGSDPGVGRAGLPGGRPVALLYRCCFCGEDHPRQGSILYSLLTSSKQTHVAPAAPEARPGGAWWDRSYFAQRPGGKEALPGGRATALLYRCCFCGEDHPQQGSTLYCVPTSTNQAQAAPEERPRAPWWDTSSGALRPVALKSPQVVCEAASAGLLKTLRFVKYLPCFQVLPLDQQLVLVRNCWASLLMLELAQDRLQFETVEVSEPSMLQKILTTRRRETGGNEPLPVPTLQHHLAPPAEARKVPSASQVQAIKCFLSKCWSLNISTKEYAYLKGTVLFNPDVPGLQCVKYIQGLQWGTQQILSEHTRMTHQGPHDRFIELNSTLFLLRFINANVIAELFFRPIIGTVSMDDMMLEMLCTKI

[2] = biological target: Beta-2 adrenergic receptor (Homo sapiens, UniProt P07550); assay: beta2AR agonists driving receptor internalization, dose response, cell-based, FAP fluorogen, flow cytometry, cherry pick 1 (AID 588763); assay type: functional
Protein RecA = biological target: T2, Protein RecA (Mycobacterium tuberculosis, UniProt P9WHJ3); assay: Fluorescence Cell-Free Homogeneous Dose Retest to Identify Inhibitors of RecA-Intein Splicing Activity. [Related pubchem assays (depositor defined):AID2097, AID2223, AID489010, AID492950]; assay type: functional
T2 sequence (P9WHJ3 whole entry): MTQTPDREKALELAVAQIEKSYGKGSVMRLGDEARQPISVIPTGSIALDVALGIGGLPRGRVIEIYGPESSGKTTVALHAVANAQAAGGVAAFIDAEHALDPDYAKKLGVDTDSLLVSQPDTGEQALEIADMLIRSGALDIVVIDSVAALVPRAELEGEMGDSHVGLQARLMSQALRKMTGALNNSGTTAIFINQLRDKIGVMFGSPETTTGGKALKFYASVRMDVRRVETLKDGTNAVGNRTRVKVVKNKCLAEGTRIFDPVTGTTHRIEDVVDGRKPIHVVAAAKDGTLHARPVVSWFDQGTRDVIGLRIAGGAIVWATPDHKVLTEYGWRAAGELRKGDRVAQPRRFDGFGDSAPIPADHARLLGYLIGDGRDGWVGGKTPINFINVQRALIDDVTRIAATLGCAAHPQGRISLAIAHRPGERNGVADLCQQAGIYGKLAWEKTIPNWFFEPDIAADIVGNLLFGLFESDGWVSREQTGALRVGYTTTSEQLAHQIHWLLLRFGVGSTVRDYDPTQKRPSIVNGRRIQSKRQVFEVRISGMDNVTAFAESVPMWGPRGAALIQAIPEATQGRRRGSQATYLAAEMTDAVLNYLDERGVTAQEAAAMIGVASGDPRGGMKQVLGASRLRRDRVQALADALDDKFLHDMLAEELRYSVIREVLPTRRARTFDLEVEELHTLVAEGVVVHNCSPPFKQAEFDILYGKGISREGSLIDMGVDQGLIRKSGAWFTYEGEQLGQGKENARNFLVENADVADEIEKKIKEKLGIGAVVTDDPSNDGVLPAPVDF

[3] = biological target: T3, Replicative DNA helicase DnaB (Mycobacterium tuberculosis, UniProt P9WMR3); assay: DnaB intein splicing inhibitors, dose response, biochemical, cell-free fluorescence (AID 449749); assay type: functional
T3 sequence (P9WMR3 whole entry): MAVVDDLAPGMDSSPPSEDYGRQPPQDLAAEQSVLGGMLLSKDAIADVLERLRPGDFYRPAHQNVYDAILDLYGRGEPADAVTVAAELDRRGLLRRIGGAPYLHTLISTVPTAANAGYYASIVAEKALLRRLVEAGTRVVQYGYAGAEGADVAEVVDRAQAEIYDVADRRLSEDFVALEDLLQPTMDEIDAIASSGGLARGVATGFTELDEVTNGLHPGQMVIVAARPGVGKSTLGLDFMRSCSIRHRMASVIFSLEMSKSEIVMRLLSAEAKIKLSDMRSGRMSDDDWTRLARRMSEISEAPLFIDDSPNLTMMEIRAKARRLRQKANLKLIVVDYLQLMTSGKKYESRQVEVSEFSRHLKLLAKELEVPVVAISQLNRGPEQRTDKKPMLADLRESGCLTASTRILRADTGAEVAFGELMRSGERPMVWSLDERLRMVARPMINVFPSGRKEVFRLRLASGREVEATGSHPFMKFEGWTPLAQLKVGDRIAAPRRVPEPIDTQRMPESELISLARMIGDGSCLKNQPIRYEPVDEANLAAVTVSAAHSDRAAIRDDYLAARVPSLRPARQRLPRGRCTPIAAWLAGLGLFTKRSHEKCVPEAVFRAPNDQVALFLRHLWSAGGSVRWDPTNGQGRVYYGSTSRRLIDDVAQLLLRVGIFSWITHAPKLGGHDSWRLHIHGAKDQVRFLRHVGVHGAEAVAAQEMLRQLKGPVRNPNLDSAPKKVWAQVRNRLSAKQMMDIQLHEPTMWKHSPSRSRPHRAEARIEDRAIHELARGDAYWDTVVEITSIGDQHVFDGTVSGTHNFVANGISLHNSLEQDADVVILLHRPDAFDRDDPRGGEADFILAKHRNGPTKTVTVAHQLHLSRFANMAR

[4] = biological target: T4, Mitochondrial peptide methionine sulfoxide reductase (Bos taurus, UniProt P54149); assay type: functional;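 also: absorbance read-out, biochemical high-throughput dose-response screen for MsrA inhibitors, confirmatory; recombinant bovine MsrA coupled to E. coli TrxB with NADPH and selenocystamine; potency is for inhibitors of MsrA activity on DMSO substrate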
T4 sequence (P54149 whole entry): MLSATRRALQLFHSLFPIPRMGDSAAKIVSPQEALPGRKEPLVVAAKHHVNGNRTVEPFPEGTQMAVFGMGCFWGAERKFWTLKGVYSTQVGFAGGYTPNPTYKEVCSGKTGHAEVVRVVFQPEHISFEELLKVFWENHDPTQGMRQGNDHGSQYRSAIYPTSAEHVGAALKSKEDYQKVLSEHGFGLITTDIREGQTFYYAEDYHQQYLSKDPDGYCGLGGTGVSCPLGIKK

Streptokinase A = biological target: T5, Streptokinase A (Streptococcus pyogenes serotype M1, UniProt P10520); assay: S. pyogenes streptokinase expression inhibitors, potency, dose response, plasminogen activation absorbance, OD405 (AID 1914); assay type: functional, Streptococcus pyogenes M1 GAS;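 also: secreted streptokinase activity via plasminogen activation per viability signal from cell pellet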
T5 sequence (P10520 whole entry): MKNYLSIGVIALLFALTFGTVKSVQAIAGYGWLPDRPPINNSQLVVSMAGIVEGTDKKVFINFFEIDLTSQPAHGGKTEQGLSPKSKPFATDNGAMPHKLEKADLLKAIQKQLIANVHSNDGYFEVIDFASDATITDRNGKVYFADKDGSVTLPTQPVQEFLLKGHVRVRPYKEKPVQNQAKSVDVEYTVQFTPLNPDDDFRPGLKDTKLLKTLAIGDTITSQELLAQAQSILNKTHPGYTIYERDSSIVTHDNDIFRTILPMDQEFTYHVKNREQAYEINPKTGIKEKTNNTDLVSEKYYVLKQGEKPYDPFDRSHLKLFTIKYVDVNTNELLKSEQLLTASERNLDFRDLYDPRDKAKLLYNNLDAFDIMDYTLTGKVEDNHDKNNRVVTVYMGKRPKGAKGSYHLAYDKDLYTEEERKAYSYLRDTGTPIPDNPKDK

[5] = system: Streptococcus sp. 'group A'; assay: growth inhibition of control SK(-) GAS strain, dose response, counter-screen for streptokinase expression inhibitor project, luminescence, kanamycin, BacTiterGlo, confirmation (AID 1900); assay type: functional, organism-based
Streptococcus = assay: Group A Streptococcus viability loss, dose response, counter-screen for streptokinase expression inhibitor project, luminescence, BacTiterGlo (AID 1915); assay type: functional, organism-based;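 also: potency for reduction of bacterial viability or growth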
Vero = Vero cell cytotoxicity, cytotoxicity control for flavivirus capping enzyme inhibitors (AID 588742); assay type: functional; conditions: Chlorocebus sabaeus
[6] = biological target: Apoptotic protease-activating factor 1 (Homo sapiens, UniProt O14727); assay type: functional
Apoptotic protease-activating factor 1, sequence (O14727 whole entry): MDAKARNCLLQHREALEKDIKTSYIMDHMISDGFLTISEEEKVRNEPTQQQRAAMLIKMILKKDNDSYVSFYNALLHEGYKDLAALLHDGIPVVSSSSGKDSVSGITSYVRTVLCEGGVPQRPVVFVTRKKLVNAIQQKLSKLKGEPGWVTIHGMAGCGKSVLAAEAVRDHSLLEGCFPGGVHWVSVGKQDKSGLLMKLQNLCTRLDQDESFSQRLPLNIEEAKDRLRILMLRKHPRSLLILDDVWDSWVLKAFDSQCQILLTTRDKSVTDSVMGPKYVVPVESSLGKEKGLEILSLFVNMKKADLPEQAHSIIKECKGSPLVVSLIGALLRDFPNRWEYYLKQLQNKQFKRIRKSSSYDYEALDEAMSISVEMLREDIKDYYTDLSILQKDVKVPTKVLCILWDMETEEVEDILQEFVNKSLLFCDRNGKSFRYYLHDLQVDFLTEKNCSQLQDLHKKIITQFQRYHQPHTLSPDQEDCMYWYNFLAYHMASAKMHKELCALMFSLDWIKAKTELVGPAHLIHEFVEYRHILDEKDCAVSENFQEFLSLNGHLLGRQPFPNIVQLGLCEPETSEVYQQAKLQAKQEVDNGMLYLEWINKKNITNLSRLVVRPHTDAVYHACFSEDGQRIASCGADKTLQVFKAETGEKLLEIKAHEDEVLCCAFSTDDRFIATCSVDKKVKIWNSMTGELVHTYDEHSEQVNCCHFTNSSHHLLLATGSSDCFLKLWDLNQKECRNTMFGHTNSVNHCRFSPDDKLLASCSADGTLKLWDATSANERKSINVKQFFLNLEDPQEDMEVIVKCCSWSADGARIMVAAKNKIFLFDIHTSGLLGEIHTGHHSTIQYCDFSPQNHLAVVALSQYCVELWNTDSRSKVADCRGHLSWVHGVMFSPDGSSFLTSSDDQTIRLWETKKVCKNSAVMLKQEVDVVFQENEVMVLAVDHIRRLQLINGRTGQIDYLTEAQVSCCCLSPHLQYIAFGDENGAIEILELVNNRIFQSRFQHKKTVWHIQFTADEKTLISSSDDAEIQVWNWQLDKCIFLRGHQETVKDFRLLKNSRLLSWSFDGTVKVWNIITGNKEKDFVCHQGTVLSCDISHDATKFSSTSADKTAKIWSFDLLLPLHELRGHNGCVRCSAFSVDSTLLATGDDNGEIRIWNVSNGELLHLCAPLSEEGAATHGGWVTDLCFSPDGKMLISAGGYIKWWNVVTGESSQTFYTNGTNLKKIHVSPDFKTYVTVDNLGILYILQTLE

Beta-2 adrenergic receptor, sequence (P07550 whole entry): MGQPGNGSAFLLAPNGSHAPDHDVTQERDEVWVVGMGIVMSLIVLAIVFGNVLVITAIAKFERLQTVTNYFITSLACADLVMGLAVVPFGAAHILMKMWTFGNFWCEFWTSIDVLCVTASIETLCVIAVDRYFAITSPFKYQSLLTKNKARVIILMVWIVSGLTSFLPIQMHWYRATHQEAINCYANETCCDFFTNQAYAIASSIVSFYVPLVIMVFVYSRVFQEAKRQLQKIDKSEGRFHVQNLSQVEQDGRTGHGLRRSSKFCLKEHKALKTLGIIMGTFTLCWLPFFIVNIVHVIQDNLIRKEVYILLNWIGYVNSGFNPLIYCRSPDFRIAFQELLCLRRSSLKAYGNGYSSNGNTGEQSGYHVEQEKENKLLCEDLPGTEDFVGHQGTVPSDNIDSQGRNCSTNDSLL

## C(=N\Nc1nc2ccccc2[nH]1)/c1ccc2c(c1)OCO2
HEK293
  IC50: > 67.5 µM (inactive)
[1]
  IC50: > 67.5 µM (inactive)

## Cn1c(CNc2nc(-c3ccccc3)cs2)nnc1SCC(=O)N1CCc2ccccc21
[2]
  EC50: 0.666 µM (active)

## O=C(NC1=NCCS1)c1cccc(Br)c1
HEK293
  IC50: > 67.5 µM (inactive)
[1]
  IC50: > 67.5 µM (inactive)

## Cc1[nH]c2ccccc2c1C(C#N)(C#N)C1C(=O)c2ccccc2C1=O
Protein RecA
  EC50: 0.297 µM (active)
[3]
  AC50: > 120 µM (inactive)
[4]
  IC50: 12.1 µM (inactive)
Streptokinase A
  EC50: > 150 µM (not active)
[5]
  EC50: 8.49 µM (active)
Streptococcus
  EC50: > 150 µM (not active)
Vero
  CC50: > 40 µM (active)
[6]
  IC50: > 100 µM (inactive)
